Molecules are shown by their SMILES.

One assay concerns the target T1, Δ^5 -lipoxygenase from rat basophilic leukemia (RBL-1) cells (Rattus norvegicus, UniProt P12527).
T1 construct: The isolated cytosolic fraction was stored in liquid N2 for up to 8 weeks without loss of 5-LO enzyme activity; endogenous in cells; host or cells: RBL-1 cells (ATCC CRL 1378), 113,000×g supernatant (cytosol)
T1 sequence (P12527 1-673): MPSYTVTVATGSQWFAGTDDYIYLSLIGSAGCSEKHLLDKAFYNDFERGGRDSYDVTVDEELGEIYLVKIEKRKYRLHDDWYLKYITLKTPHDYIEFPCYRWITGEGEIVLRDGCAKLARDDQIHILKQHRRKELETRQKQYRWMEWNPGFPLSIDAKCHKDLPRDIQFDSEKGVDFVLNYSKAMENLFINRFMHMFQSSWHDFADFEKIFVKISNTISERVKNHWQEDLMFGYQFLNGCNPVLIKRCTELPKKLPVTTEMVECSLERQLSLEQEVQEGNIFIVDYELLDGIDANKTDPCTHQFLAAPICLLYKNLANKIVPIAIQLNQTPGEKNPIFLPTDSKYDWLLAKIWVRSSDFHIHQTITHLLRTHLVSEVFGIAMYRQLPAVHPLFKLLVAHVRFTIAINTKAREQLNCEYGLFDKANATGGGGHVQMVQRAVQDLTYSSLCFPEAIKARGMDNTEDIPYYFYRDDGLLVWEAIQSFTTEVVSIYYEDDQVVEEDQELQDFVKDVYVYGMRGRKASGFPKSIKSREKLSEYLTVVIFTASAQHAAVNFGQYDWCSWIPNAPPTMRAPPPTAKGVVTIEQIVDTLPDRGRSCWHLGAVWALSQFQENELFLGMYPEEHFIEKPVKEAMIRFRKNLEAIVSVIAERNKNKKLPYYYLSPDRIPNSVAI
Description: In vitro test for Δ^5-lipoxygenase inhibitors (5-HETE radioimmunoassay). The format is biochemical. The settings on record: RBL-1 5-LO, 5-HETE formation; read-out: Inhib. of Δ^5 Lipoxygenase IC50. On the procedure: RBL-1 cells (CRL 1378) were obtained from the American Type Culture Collection, Rockville, MD. DMEM and glutamine were purchased from Flow Labs, McLean, Va. FBS (Gibco, Grand Island, N.Y.) was heat-inactivated for 1 hour at 56° C. Reagents for protein determinations were obtained from Biorad, Rockville Center, N.Y. Arachidonic acid (approx. 99%), ATP (disodium salt), BHT, dextran (clinical grade), tetrasodium EDTA, gelatin, gentamycin sulfate solution, reduced glutathione, 1 M HEPES buffer, indomethacin, NaCl, reduced NADPH, Trizma 7.2, and Trizma 8.5 were purchased from Sigma Chemical, St. Louis, Mo. CaCL2 dihydrate, Norit A charcoal, and citric acid monohydrate were obtained from Fisher Scientific, Pittsburgh, Pa. […] A synthetic 5-HETE standard was supplied by Dr. M. Rosenberger, Dept. of Medicinal Chemistry, Hoffmann La-Roche, Nutley, N.J.; [see Corey, E. J., and Hashimoto, S. (1981) Tet. […] Approximately 7-9 days after thawing, RBL-1 cells growing in log phase were seeded at a density of 7500 viable cells/ml in a closed 89-liter spinner flask. […] RBL-1 cells were harvested by centrifugation at 4° C. at 1500×g for 10 minutes and were washed 3 times with ice cold 0.05M tris-hCl, pH 7.2, tetrasodium EDTA (buffer 1). The cells were washed last in 0.05M Tris-HCl containing 14 μM indomethacin, 1 mM glutathione, 1.5 mM NaCl, and 1 mM tetrasodium EDTA (buffer 2), resuspended at a density of 5×108'/ml approximately 10 ml) and disrupted manually at 4° C. using a 40 ml Dounce (type A pestle) homogenizer. After 5 minutes of homogenization, 95% cell lysis was confirmed by phase contrast microscopy. The broken cells were diluted 1:2 with buffer 2 and centrifuged at 12,380×g for 10 minutes at 4° C. to pellet cellular debris and granules. The 12,380×g supernatant was centrifuged at 113,000×g for 60 minutes to pellet microsomes. The high-speed supernatant (5.9±0.48 mg/ml protein) was frozen immediately in 1 ml aliquots using a dry ice/acetone bath. The isolated cytosolic fraction was stored in liquid N2 for up to 8 weeks without loss of 5-LO enzyme activity. Compounds were dissolved at 25 mM concentration in DMSO, then diluted to final concentrations using 95% ethanol. For a typical enzyme assay, the partially purified 5-LO preparation was preincubated with drug or vehicle for 10 minutes at 30° C. The assay tubes were then transferred at a 37° C. water bath where they received arachidonic acid (8.25 μM final concentration) to initiate 5-LO activity. […] The samples were immediately cooled on ice and neutralized by dilution with 0.05M Tris-HCl, pH 8.5, which contained 25 mg/1 BHT. A boiled cytosol control was placed at the end of each assay to emasure non-enzymatic oxidation of arachidonic acid. […] Under the assay conditions described, the 5-LO catalyzed the conversion of arachidonic acid to 5-HPETE which, as a consequence of peroxidase activity, was reduced to 5-HETE. A specific radioimmunoassay was employed to quantitate the amount (pmoles) of 5-HETE formed during the enzyme reaction. To prepare the immunogen, Dr. M. Rosenberger (Dept. of Medicinal Chemistry) converted the racemic 5-HETE lactone (Corey, E. J., and Hashimoto, S. (1981) Tet. Letters, 22, 299-302) to its hydrazine derivative. The hydrazide was conjugated to thiolated Keyhole Limpet Hemocyanin (Young, […]., and Rokach, J. (1982) Prostaglandins 23, 603-613) using N-ethyl-maleimide as previously described for LTB4 by (Young, R., N, Zomboni, R. and Rokach, J. 91983) Prostaglandins, 26, 605-613). New Zealand White rabbits received multiple intradermal injections on their backs with […] conjugate emulsified in complete Freund's adjuvant. A schedule of injections reported by Salmon (Salmon, J. A. (1978) Prostaglandins, 15, 383-397) was followed. After the monthly i.p. booster injections, blood was obtained from the marginal ear vein 5-7 days later and assessed for antibody titer. […]
`CCCc1c(OCCCCCCc2ccc(C(C)C)c(O)c2O)ccc(C(=O)O)c1O` [4-[6-[2,3-dihydroxy-4-(1-methylethyl)phenyl]hexyloxy]-2-hydroxy-3-propylbenzoic acid]: the concentration for half-maximal inhibition (IC50) (usually the concentration that gives 50% inhibition) came out at 100 nM. Take `CCCc1c(OCCCCCCCc2cccc(O)c2O)ccc(C(=O)O)c1O` [4-[7-(2,3-dihydroxyphenyl)heptyloxy]-2-hydroxy-3-propylbenzoic acid]: the IC50 is 5 nM. For the molecule `CCCc1c(OCCCCCCc2cccc(O)c2O)ccc(C(=O)O)c1O` [4-[6-(2,3-Dihydroxyphenyl)hexyloxy]-2-hydroxy-3-propylbenzoic acid], the IC50 was found to be 20 nM. Same read-out and setting: in the case of `CCCc1c(OCCCCCCCCCCc2cccc(O)c2O)ccc(C(=O)O)c1O` [4-[10-(2,3-dihydroxyphenyl)decyloxy]-2-hydroxy-3-propylbenzoic acid] it was 20 nM; in that of `O=C(O)c1ccc(OCCCCCCc2cccc(O)c2O)cc1` [4-[6-(2,3-Dihydroxyphenyl)hexyloxy]benzoic acid], 170 nM; in that of `O=C(O)c1ccc(OCCCCCCc2cccc(O)c2O)cc1O` [4-[6-(2,3-Dihydroxyphenyl)hexyloxy]-2-hydroxybenzoic acid], 320 nM. Regarding `CCCc1c(OCCCCCc2cccc(O)c2O)ccc(C(=O)O)c1O` [4-[5-(2,3-Dihydroxyphenyl)pentyloxy]-2-hydroxy-3-propylbenzoic acid], the IC50 is 6 nM. On the same count and under the same terms, in the case of `CCCc1c(OCCCCCCc2ccc(O)c(O)c2)ccc(C(=O)O)c1O` [4-[6-(3,4-dihydroxyphenyl)hexyloxy]-2-hydroxy-3-propylbenzoic acid] it was 5 nM; in that of `CCCc1c(OCCCCc2cccc(O)c2O)ccc(C(=O)O)c1O` [4-[4-(2,3-dihydroxyphenyl)butoxy]-2-hydroxy-3-propylbenzoic acid], 90 nM; in that of `CCCc1c(OCCCCCCc2cccc(O)c2O)ccc(C(C)=O)c1O` [1-[2-hydroxy-4-[6-(2,3-dihydroxyphenyl)hexyloxy]-3-propylphenyl]ethanone], 30 nM.

Staying with this assay, now noted: read-out: Inhib. of Δ^5 Lipoxygenase, % inhibition at 0.01 μM.
For `CCCc1c(OCCCCc2cccc(O)c2O)ccc(C(C)=O)c1O` [1-[2-Hydroxy-4-[4-(2,3-dihydroxyphenyl)butoxy]-3-propylphenyl]ethanone], the inhibition (in general, the share of the control response that was lost under treatment) at 0.01 µM was 48%.

Still in this assay, the particulars now being: read-out: Inhib. of Δ^5 Lipoxygenase, % inhibition at 0.1 μM.
On to `CCCc1c(O)c(C(=O)O)cc(Cl)c1OCCCCCCc1cccc(O)c1O` [5-Chloro-2-hydroxy-4-[6-(2,3-dihydroxyphenyl]hexyloxy]-3-propylbenzoic acid], for which the inhibition at 0.1 µM amounted to 48%. The same measure, in the same setting: in the case of `CCCc1c(OCCCCCCCCc2cccc(O)c2O)ccc(C(=O)O)c1O` [4-[8-(2,3-dihydroxyphenyl)octyloxy]-2-hydroxy-3-propylbenzoic acid] it was 62%; in that of `CCCc1c(OCCCCCCc2ccc(C(C)C)c(O)c2O)ccc(C(C)=O)c1O` [1-[2-hydroxy-4 [6-[2,3 dihydroxy-4-(1-methylethyl)phenyl]hexyloxy]-3 propylphenyl]ethanone], 35%.

Still in this assay, the particulars now being: read-out: Inhib. of Δ^5 Lipoxygenase, % inhibition at 1 μM.
For `CCCc1c(OCCCCCCc2cccc(O)c2O)ccc(C(=O)OCC)c1O` [4-[6-(2,3-Dihydroxyphenyl)hexyloxy]-2-hydroxy-3-propylbenzoic acid ethyl ester], the inhibition at 1 µM worked out at 100%.

Consider `CCCc1c(OCCCc2ccc(O)c(O)c2)ccc(C(=O)O)c1O` [4-[3-(3,4-Dihydroxyphenyl)propoxy]-2-hydroxy-3-propylbenzoic acid], for which the inhibition at 1 µM was determined as 97%.

These data come from patent publication US5025036A, “Catechol carboxylic acids” (Hoffmann-La Roche Inc., priority 1989, dated 1991).
